Peptide text beside a SMILES is read from it. * marks the point of attachment. Cbz = O=C(OCc1ccccc1)* Where only a bound is given, the exact number is not on record here.

Assay [1] has as its system FKBP-YFP fusion proteins. Kind of assay: Kinetics of FKBP-YFP fluorescence upon addition of Shield1. Format: cell-based, human. To be noted: NIH3T3 cells stably expressing FKBP-YFP variants. The protocol:
(§1) The data for FIGS. 2A-2D are presented as the average mean fluorescence intensity (MFI)±SEM relative to that of the maximum fluorescence intensity observed for the individual mutant. Experiments were performed in triplicate. (FIG. 2A) Fluorescence of FKBP-YFP fusion proteins expressed in NIH3T3 cells as determined by flow cytometry in the absence of Shield1. (FIG. 2B) NIH3T3 cells stably expressing FKBP-YFP fusion proteins were treated with three-fold dilutions of Shield1 (1 μM to 0.1 nM) and the fluorescence was monitored by flow cytometry. (FIG. 2C) NIH3T3 cells stably expressing FKBP-YFP fusion proteins were either mock-treated (circles) or treated with 30 nM Shield1 (squares), 100 nM Shield1 (diamonds), 300 nM Shield1 (crosses), or 1 μM Shield1 (triangles). Fluorescence was monitored over time using flow cytometry. MFI was normalized to 100% of cells treated with 1 μM Shield1 at 24 hrs. (FIG. 2D) NIH3T3 cells stably expressing FKBP-YFP fusion proteins were treated with 1 μM Shield1 for 24 hours at which point the cells were washed with media to remove Shield1, and the decrease in fluorescence was monitored using flow cytometry.
(§2) FIG. 8 is a graph showing the kinetics of FKBP-YFP fluorescence in cells upon addition of Shield1. NIH3T3 cells stably expressing the indicated FKBP-YFP fusions were treated with 1 μM Shield1, and increases in fluorescence were monitored over time using flow cytometry. Data are presented as the average mean fluorescence intensity (MFI)±SEM relative to that of the maximum fluorescence intensity observed for the individual variant. The experiment was performed in triplicate, and MFI was normalized to 100% at 24 hr.
(§3) In a kinetic study of NIH3T3 cells stably expressing each of the five FKBP-derived, ligand-responsive destabilizing domain variants, YFP fluorescence increased at approximately the same rate upon addition of Shield1, with maximum fluorescence achieved at 24 hours and stably maintained for at least an additional 48 hours without further addition of Shield1 (FIG. 2C). […]

Assay [2] deals with T1, FKBP-YFP fusion proteins (Homo sapiens, UniProt P62942, F37V).
T1 construct: expressed in transfected cells
T1 sequence (P62942 with tags, fused parts or gaps F37V): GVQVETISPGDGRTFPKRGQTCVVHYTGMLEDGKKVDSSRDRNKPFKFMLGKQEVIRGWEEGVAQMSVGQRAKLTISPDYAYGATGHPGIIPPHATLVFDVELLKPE
The assay is described as above. The class given is cell-based. The conditions noted are these: NIH3T3 cells transduced with L106P-YFP. The protocol: as §1, §2, §3

The next assay addresses FKBP F36V variant (Homo sapiens, UniProt P62942, F37V). The conditions noted are these: Clackson et al. 1998; cited from earlier work.
Assay [3] deals with T2, FKBP L106P-YFP fusion protein (Homo sapiens, UniProt P62942, F37V).
T2 construct: expressed in transfected cells
T2 sequence (P62942 with tags, fused parts or gaps F37V): as above
Kind of assay: Shield1 dose-response stabilization of FKBP-YFP fusion, flow cytometry. The class given is cell-based. The protocol: as §1
(§4) Twenty-four hours prior to analysis, transduced NIH3T3 cells were plated at 1×10^5 cells per well of a 12-well plate and treated as described. Cells were removed from the plate using PBS+2 mM EDTA, washed once with PBS, and resuspended in 200 μl PBS. Cells were analyzed at the Stanford Shared FACS Facility using FlasherII with 10,000 events represented.
(§5) Each variant FKBP-derived, ligand-responsive destabilizing domain was separately transduced into NIH3T3 cells, and YFP fluorescence levels were measured in the absence of Shield1 (FIG. 2A). […] The most destabilizing variation, L106P, produced YFP fluorescence at a level of only 1-2% relative to the positive control. All FKBP-derived, ligand-responsive destabilizing domain variants produced increased fluorescence signal when incubated in the presence of Shield1 ([…]). […]

Assay [4] has as its target T3, FKBP V24A-YFP fusion protein (Homo sapiens, UniProt P62942, F37V/V25A).
T3 construct: expressed in transfected cells; host or cells: NIH3T3 (retroviral transduction)
Described as above. Format: cell-based. To be noted: NIH3T3 cells stably expressing V24A FKBP-YFP; extracellular Shield1 giving 50% of maximum YFP signal; read-out: EC50 of stabilization (rescue) by Shield1. The protocol: as §1, §4, §5

A further assay has as its system YFP fusion protein. Kind of assay: Immunoblot of YFP fusion protein in transfected Plasmodium. Format: cell-based, Plasmodium falciparum.
The test system of assay [5] is L106P-RhoA, L106P-Cdc42, Arl7-L106P in NIH3T3 cells. Kind of assay: Ligand-dependent control of cell morphology by GTPase fusions, confocal microscopy. The class given is cell-based. The conditions noted are these: Shield1-treated, mock-treated or Shield1 removed. The protocol: NIH3T3 cells stably expressing constitutively active GTPases fused to destabilizing domains were treated with 1 μM Shield1 for 24 hr. At this time, cells were washed once with PBS, plated at 8×10^3 cells in 4-well LabTek Chambered coverglass (NUNC) coated with 1 mg/ml poly-D-lysine (Sigma), along with mock-treated transduced cells and transduced cells treated with 1 μM Shield1. Cells were cultured for 24 hr in 10% DBS, then cultured in serum-free media for 12 hr. Cells were then washed with PBS, fixed in 4% paraformaldehyde for 15 min, permeabilized in 0.2% Triton X-100 for 5 min, stained with 1 μg/ml Alexa Fluor 488-conjugated phalloidin (Invitrogen; A12379) in PBS for 20 min, and washed with PBS. Fixed cells were imaged using a Bio-Rad Radiance 2100 confocal microscope.
Expression of constitutively active small GTPases causes well-characterized changes in cellular morphology (Heo and Meyer, 2003). To determine if FKBP-derived destabilizing domains, in combination with Shield1, could affect cell morphology by modulating GTPases levels, several small GTPases (i.e., RhoA, Cdc42, or Arl7) were fused to the destabilizing domains (FIGS. 4A and 4B). NIH3T3 cells were individually transduced with the L106P-RhoA, L106P-Cdc42, or Arl7-L106P (note arrangement of fusions), and then mock-treated or treated with Shield1, and visualized using confocal microscopy (not shown). […]

The subject of assay [6] is FKBP-derived stability-affecting domain fused to the N-terminus of YFP. Kind of assay: Time lapse fluorescence microscopy of parasitophorous vacuoles in infected HFF cells. The class given is cell-based, Toxoplasma gondii. To be noted: T. gondii in HFF cells. The source says: The fluorescence of parasitophorous vacuoles in infected cells was monitored by time lapse microscopy following addition (FIG. 6B) or removal of ligand (FIG. 6C). Background fluorescence is indicated.
Nucleotides expressing the fusion the fusion protein were introduced into T. gondii parasites, which were then used to infect HFF cells. The parasitophorous vacuoles in the infected cells were monitored by time lapse fluorescence microscopy following the addition of ligand (Shield1; FIG. 6B) or following the removal of ligand (FIG. 6C). The indicated control line corresponds to background fluorescence, while each of the other lines in the graphs correspond to individual infected cells.

For assay [7], the system named is FKBP variant fusions to proteins of interest in NIH3T3 cells. Kind of assay: Immunoblot of proteins of interest fused to FKBP destabilizing domains, mock or 1 μM Shield1. Format: cell-based. The protocol:
(FIG. 4A) FKBP variants F15S and L106P were fused to the N-termini of several different proteins and transduced into NIH3T3 cells. Cell populations stably expressing the fusions were then either mock-treated or treated with 1 μM Shield1, and cell lysates were subjected to immunoblot analysis using antibodies specific for the protein of interest. Endogenous proteins served as loading controls (when detected) and Hsp90 served as a loading control otherwise. (FIG. 4B) FKBP variants D100G and L106P were fused to the C-termini of several different proteins of interest and treated as above.
An additional example is CD8α, a transmembrane glycoprotein found on the surface of T cells, which was able to be detected on the surface of cells by flow cytometry (FIG. 5), in a Shield1-dependent manner. […] Here, NIH3T3 cells stably expressing the fusion proteins were divided into three pools (groups). The first group (−) was mock-treated, the second group (+) was treated with 1 μM Shield1 for 24 hrs, and the third group (+/−) was treated with 1 μM Shield1 for 24 hrs, and then washed with media and cultured for 24 hr in the absence of Shield1. Live cells were then probed with a FITC-conjugated anti-CD8α antibody and assayed by flow cytometry. Data are presented as the average mean fluorescence intensity±SEM from an experiment performed in triplicate.
On the technique in general: Immunoblotting shows a protein as a band on a membrane.

The subject of assay [8] is falcipain-2 fused to the F36V/L106P FKBP mutant. Kind of assay: Conditional falcipain stabilization, swollen vacuole phenotype. The class given is cell-based, Plasmodium falciparum. The source says: In a related experiment, fusion proteins were made with falcipain-2, a cysteine protease. Knocking out the falcipain-2 gene causes vacuole swelling resulting from the decreased ability of the organisms to degrade hemoglobin. Fusion of falcipain-2 to the F36V/L106P FKBP mutant produced a conditional falcipain stabilization system.

The test system of assay [9] is luciferase fused to FKBP-derived stability-affecting protein (F36V/L106P). The experiment in a line: Bioluminescence imaging of mice challenged with HCT116 tumor cells expressing luciferase-FKBP fusion. The class given is in vivo, SCID mice. The source says:
FIGS. 7A and 7B are graphs showing the results of an experiments in which SCID mice were challenged with tumor cells genetically manipulated to express luciferase fused to a stability-affecting protein.
HCT116 cancer cells were transfected with a nucleic acids encoding the reporter gene luciferase fused to an FKBP-derived stability-affecting protein (F36V/L106P) mutant. Stable transformants were then selected and used to challenge SCID mice.
The results of an experiments in which SCID were challenged with tumor cells harboring nucleic acids encoding luciferase fused to an FKBP-derived, stability-affecting protein (F36V/L106P) are shown in FIGS. 7A and 7B. The mice were either untreated or treated with the indicated amounts of ligand (Shield1) and bioluminescent signals were imaged over time as described (Lin, A. H., et al. (2005) J. Immunol. 175:547-54; Luo, J., et al. (2006) Proc. Nat'l. Acad. Sci. USA 103:18326-31; n=4-10 mice per treatment group).

Another assay concerns proteasome. The experiment in a line: Immunoblot of F15S-YFP and L106P-YFP after Shield1 withdrawal with proteasome inhibitors. The conditions noted are these: 10 μM, 4 hrs, F15S-YFP and L106P-YFP in NIH3T3. The class given is cell-based.

Sequence of luciferase fused to FKBP-derived stability-affecting protein (F36V/L106P) (P62942 with tags, fused parts or gaps F37V limits assumed): as the sequence (P62942 with tags, fused parts or gaps F37V) above
Sequence of FKBP F36V variant (P62942 2-108 F37V limits assumed): as the sequence (P62942 with tags, fused parts or gaps F37V) above, with P106L counted along it
Sequence of falcipain-2 fused to the F36V/L106P FKBP mutant (P62942 with tags, fused parts or gaps F37V limits assumed): as the sequence (P62942 with tags, fused parts or gaps F37V) above
T3 sequence (P62942 2-108 V25A/F37V): as the sequence (P62942 with tags, fused parts or gaps F37V) above, with V24A, P106L counted along it
Description for proteasome: Immunoblot analysis was performed using an anti-YFP antibody.
The mechanism of degradation was examined for the F15S and L106P variants. Since the ubiquitin-proteasome system is a major mediator of intracellular protein degradation (Pickart, 2004), the cells expressing either the FKBP-derived, ligand-responsive destabilizing domain variants F15S or L106P were incubated with MG132 (FIG. 2F) or lactacystin (FIG. 9), which inhibit ubiquitin-proteasome-mediated protein degradation.

The term EC50 denotes the concentration that produces a half-maximal response. As to “1-[2-(3,4,5-trimethoxy-phenyl)-butyryl]-piperazine-2-carboxylic acid 3-(3,4-dimethoxy-phenyl)-1-[3-(2-morpholin-4-yl-ethoxy)-phenyl]-propyl ester [Shield1]”, in the assay on FKBP-YFP fusion proteins [1], the “additional time maximum fluorescence is stably maintained without further addition of Shield1” value is not below 48 h and the “time at which maximum fluorescence is achieved after addition of Shield1” value is 24 h. In addition, the “time within which YFP expression is observed after Shield1 treatment” value at FKBP-YFP fusion proteins [2] is reported as not above 15 min. The “binding to F36V variant compared to wild-type FKBP” value on FKBP F36V variant is on record as “about 1,000 fold”. Further, the “L106P-YFP stabilization upon addition of Shield1” value in [3] (1 μM Shield1) is recorded as “fully stabilized”. Moreover, in assay [3] (NIH3T3 cells stably expressing L106P FKBP-YFP), the EC50 is approximately 100 nM. The EC50 in assay [4] is approximately 5 nM. In the assay with YFP fusion protein, the “levels of YFP fusion protein in the presence of ligand” value is given as “greatly increased”. Moreover, the “percentage of cells displaying the predicted morphology (penetrance)” value in assay [5] was more than 90%. Also, in assay [6], the “levels of YFP on addition / removal of ligand” value is “levels of YFP increase in the presence of ligand and decrease in the absence of ligand”. For the same compound, in [7], the “Shield1-dependent stability of fusion proteins” value is reported as “Shield1-dependent stability”. Moreover, in assay [8], the “organisms with swollen vacuole phenotype, presence of ligand compared to absence” value is “More than 5 times”. In addition, the “effect of repeated administration of the ligand” value in assay [9] (10 mg/kg Shield1 every 48 hours) is listed as “continued luciferase stabilization”. For the same compound, the “time of peak luminescence following a single injection of ligand” value in assay [9] (SCID mice, HCT116 luciferase-FKBP F36V/L106P tumors) was “about 10 hours”. Moreover, the “dependence of luminescence on ligand dose” value in assay [9] (SCID mice, single injection) is “dependent on ligand dose”.
On to `CC(C)C[C@@H](C=O)NC(=O)[C@H](CC(C)C)NC(=O)[C@H](CC(C)C)NC(=O)OCc1ccccc1` [MG132] (Cbz-Leu-Leu-Leu-aldehyde), for which the “effect on degradation of variant FKBP fusion proteins following withdrawal of Shield1” value in the assay on proteasome was “inhibited degradation”.
On the same count and under the same terms, the entry for `CC(=O)N[C@@H](CSC(=O)[C@]1([C@@H](O)C(C)C)NC(=O)[C@H](C)[C@@H]1O)C(=O)O` [lactacystin] is “inhibited degradation”.

The values are drawn from US9487787B2, “Method for regulating protein function in cells using synthetic small molecules” (The Board of Trustees of the Leland Stanford Junior …, priority 2007, dated 2016).
